Structures can show the parent of a compound that is named as a salt.

The EC50 is the concentration giving half of the maximal effect. A high value points to lower potency in that assay.

The first assay addresses T1, aromatase (Rattus norvegicus, UniProt P22443).
T1 construct: ovarian microsomes are obtained from rats treated with pregnant mares serum gonadotropin; from tissue; host or cells: ovarian microsomes of rats treated with pregnant mares serum gonadotropin
T1 sequence (P22443 1-508): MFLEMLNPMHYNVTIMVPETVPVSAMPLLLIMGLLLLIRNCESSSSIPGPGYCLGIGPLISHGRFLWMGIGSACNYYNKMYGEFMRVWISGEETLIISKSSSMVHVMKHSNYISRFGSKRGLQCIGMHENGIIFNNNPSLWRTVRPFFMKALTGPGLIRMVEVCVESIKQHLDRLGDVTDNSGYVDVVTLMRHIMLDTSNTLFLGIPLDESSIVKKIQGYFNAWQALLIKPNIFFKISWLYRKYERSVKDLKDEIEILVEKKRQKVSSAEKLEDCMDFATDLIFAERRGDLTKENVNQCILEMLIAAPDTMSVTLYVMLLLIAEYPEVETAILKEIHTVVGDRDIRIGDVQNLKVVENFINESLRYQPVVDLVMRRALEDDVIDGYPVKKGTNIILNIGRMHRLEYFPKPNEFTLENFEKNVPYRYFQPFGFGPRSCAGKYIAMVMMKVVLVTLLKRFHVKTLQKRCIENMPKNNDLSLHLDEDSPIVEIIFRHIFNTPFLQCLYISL
Kind of assay: Aromatase inhibition in the rat ovarian microsome assay. The conditions noted are these: EC50: concentration required to achieve 50% inhibition of aromatase activity, substrate (androstenedione) concentration 0.1 μM. Format: biochemical.
Method: In this test system, ovarian microsomes are obtained from rats treated with pregnant mares serum gonadotropin. Test compounds are added to reaction vials containing 0.1 μM 4-androstene-3,17-dione, 100,000 dpm 1,2[^3 H]-androstenedione, the microsomes and a NADPH generating system. The concentrations of the inhibitors tested ranged between 0.005 and 10 μM.
Turning to `Fc1ccc(C(c2ccccc2)(c2ccc(F)cc2)n2ccnc2)cc1` [1-bis(4-fluorophenyl)phenylmethyl]-1H--imidazole], the EC50 is 40 nM.

As for `Clc1cccc(Cn2ccnc2)c1` [1-(3-chlorobenzyl)imidazole], the EC50 was 3600 nM. `FC(F)(F)c1ccc(C(c2ccc(Cl)cc2)(c2cncnc2)n2ccnc2)cc1` (stereo not drawn) [5-[(4-chlorophenyl)-1H--imidazol-1-yl(4-trifluoromethylphenyl)methyl]pyrimidine] had an EC50 of 30 nM. The compound `Clc1ccccc1C(c1cccnc1)(c1ccccc1Cl)n1cncn1` [3-[bis(2-chlorophenyl)-1H--1,2,4-triazol-1-ylmethyl]pyridine] registered an EC50 of 720 nM. Still for that read-out and setting: to `Clc1ccc(C(c2cccnc2)(c2ccccc2Cl)n2ccnc2)cc1` (stereo not drawn) [3-[(2-chlorophenyl)(4-chlorophenyl)-1H--imidazol-1-ylmethyl]pyridine] belongs 86 nM; to `c1ccc(-c2ccc(Cn3ccnc3)cc2)cc1` [1-[(1,1'-biphenyl)-4-ylmethyl]-1H--imidazole hydrochloride], 1650 nM; to `Cc1nccn1C(c1ccccc1)(c1ccccc1)c1ccccc1` [2-methyl-1-tritylimidazole], 1300 nM. Same read-out and setting: the value for `c1ccc(C(c2ccccc2)(c2ccccn2)n2ccnc2)cc1` [2-(1H--imidazol-1-yldiphenylmethyl)pyridine] was under 50 nM; that for `CC(C)(C)C(c1ccc(Cl)cc1)(c1cccnc1)n1ccnc1` (stereo not drawn) [3-(α-tert-butyl-4-chloro-α-imidazol-1-ylbenzyl)pyridine] was 100 nM.

`Cc1nccn1C(c1ccccc1)(c1ccc(Cl)cc1)c1ccc(Cl)cc1` [1-[bis(4-chlorophenyl)phenylmethyl]-2-methyl-1H--imidazole] showed an EC50 of 94 nM.

The compound `Cc1ccc(Cn2ccnc2)cc1` [1-[(4-methylphenyl)methyl]-1H--imidazole hydrochloride] yielded an EC50 of 840 nM. `Clc1ccc(Cl)c(C(c2cccnc2)(c2cc(Cl)ccc2Cl)n2ccnc2)c1` [3-(bis[2,5-dichlorophenyl]-1H--imidazol-1-ylmethyl)pyridine] had an EC50 of 210 nM. Still for that read-out and setting: to `COc1ccccc1Cn1ccnc1` [1-[(2-methoxyphenyl)methyl]-1H--imidazole hydrochloride] belongs 2100 nM; to `Clc1ccc(C(c2ccc(Cl)cc2)(c2ccc(Cl)cc2)n2cncn2)cc1` [1-[tris(4-chlorophenyl)methyl]-1H--1,2,4-triazole], 420 nM; to `c1ccc2c(Cn3ccnc3)cccc2c1` [1-(1-naphthalenylmethyl)-1H--imidazole hydrochloride], 330 nM. Turning to `c1ccc(C(c2ccccc2)(c2cccc3ccccc23)n2ccnc2)cc1` [1-(1-naphthalenyldiphenylmethyl)-1H--imidazole], a half-maximal response (EC50) required 96 nM. Still for that read-out and setting: to `CSc1ccc(C(c2ccccc2)(c2cccnc2)n2ccnc2)cc1` (stereo not drawn) [3-(1H--imidazol-1-yl-[4-(methylthio)phenyl]phenylmethyl)pyridine] belongs under 50 nM. The same measure, in the same setting: to `Clc1ccc(C(c2ccccc2)(c2ccccc2)n2cncn2)cc1` [1-[(4-chlorophenyl)diphenylmethyl]-1H--1,2,4-triazole] belongs 95 nM; to `C#CC(c1ccc(Cl)cc1)(c1ccc(Cl)cc1)n1ccnc1` [1-[1,1-bis(4-chlorophenyl)-2-propynyl]-1H--imidazole], under 50 nM.

As to `c1ccc(C(c2ccccc2)(c2cncnc2)n2cncn2)cc1` [5-(diphenyl-1H--1,2,4-triazol-1-ylmethyl)pyrimidine], a half-maximal effect (EC50) was put at 825 nM. On the same count and under the same terms, to `Cc1ccccc1Cn1ccnc1` [1-[(2-methylphenyl)methyl]-1H--imidazole hydrochloride] belongs 1500 nM; to `Cc1nccn1C(c1ccc(Cl)cc1)(c1ccc(Cl)cc1)c1ccc(Cl)cc1` [1-tris(4-chlorophenyl)methyl-2-methyl-1H--imidazole], 270 nM; to `Cc1nccn1C(c1ccccc1)(c1ccccc1)c1ccncc1` [4-[(2-methyl-1-imidazol-1-yl)diphenylmethyl]pyridine], 120 nM.

`CC(C)C(c1cccc2ccccc12)n1ccnc1` (stereo not drawn) [1-[2-methyl-1-(1-naphthalenyl)propyl]-1H--imidazole nitrate] showed an EC50 of 410 nM. In turn, `Clc1cc(Cl)cc(Cn2ccnc2)c1` [1-[(3,5-dichlorophenyl)methyl]-1H--imidazole hydrochloride] had an EC50 of 110 nM. Still for that read-out and setting: to `CCOc1ccccc1Cn1ccnc1` [1-[(2-ethoxyphenyl)methyl]-1H--imidazole hydrochloride] belongs 1560 nM; to `Clc1ccccc1C(c1cccnc1)(c1ccccc1Cl)n1ccnc1` [3-[bis(2-chlorophenyl)-1H--imidazol-1-ylmethyl]pyridine], 305 nM. `c1ccc(Cn2ccnc2)cc1` [1-benzylimidazole] had an EC50 of 2800 nM.

For `Fc1ccc(Cn2ccnc2)cc1` [1-[(4-fluorophenyl)methyl]-1H--imidazole nitrate], the EC50 was found to be 630 nM. `COc1ccc(C(c2ccccc2)(c2ccc(OC)cc2)n2ccnc2)cc1` [1-[α,α-bis(4-methoxyphenyl)benzyl]imidazole] registered an EC50 of 64 nM. On the same count and under the same terms, the value for `c1ccc(CCOc2ccccc2Cn2ccnc2)cc1` [1-[(2-[2-phenylethoxy]phenyl)methyl]-1H--imidazole nitrate] was 86 nM.

On to `O=[N+]([O-])c1ccccc1Cn1ccnc1` [1-[(2-nitrophenyl)methyl]-1H--imidazole hydrochloride], for which the EC50 stood at 3100 nM. Still for that read-out and setting: to `FC(F)(F)c1cccc(Cn2ccnc2)c1` [1-[(3-trifluoromethylphenyl)methyl]-1H--imidazole hydrochloride] belongs 390 nM. Same read-out and setting: to `Clc1ccc(Cn2ccnc2)cc1Cl` [1-[(3,4-dichlorophenyl)methyl]-1H--imidazole hydrochloride] belongs 320 nM; to `Clc1ccc(Cn2ccnc2)cc1` [1-(4-chlorobenzyl)imidazole hydrochloride], 450 nM.

The compound `Cc1cccc(Cn2ccnc2)c1` [1-[(3-methylphenyl)methyl]-1H--imidazole ethanedioate] registered an EC50 of 920 nM. Still for that read-out and setting: to `c1ccc(C(c2ccccc2)n2cncn2)cc1` [1-diphenylmethyl-1H--1,2,4-triazole] belongs over 5000 nM; to `Clc1ccc(C(c2ccccc2)(c2ccccc2)n2ccnc2)cc1` [1-[(4-chlorophenyl)diphenylmethyl)-1H--imidazole], 69 nM; to `c1ccc(C2(n3ccnc3)CCCCCC2)cc1` [1-(1-phenylcycloheptyl)-1H--imidazole], 110 nM. On the same count and under the same terms, the value for `CC(c1ccccc1Cl)n1ccnc1` (stereo not drawn) [1-[1-(2-chlorophenyl)ethyl]-1H--imidazole hydrochloride] was 2500 nM. Same read-out and setting: to `CSc1ccc(C(c2ccccc2)(c2cccnc2)n2cncn2)cc1` (stereo not drawn) [3-([4-(methylthio)phenyl]phenyl-1H--1,2,4-triazol-1-ylmethyl)pyridine] belongs 195 nM; to `Clc1ccc(C(c2ccc(Cl)cc2)(c2ccc(Cl)cc2)n2ccnc2)cc1` [1-tris(4-chlorophenyl)methyl-1H--imidazole], 270 nM. In turn, `Clc1ccc(C(c2ccccc2)(c2ccc(Cl)cc2)n2cncn2)cc1` [1-[bis(4-chlorophenyl)phenylmethyl]-1H--1,2,4-triazole] returned an EC50 of 110 nM.

Consider `FC(F)(F)c1ccc(Cn2ccnc2)cc1` [1-[(4-trifluoromethylphenyl)methyl]-1H--imidazole ethanedioate], for which it took 190 nM to reach a half-maximal effect (EC50).

As for `COc1ccc(Cn2ccnc2)cc1` [1-[(4-methoxyphenyl)methyl]-1H--imidazole hydrochloride], the EC50 amounted to 2500 nM. For `Cc1nccn1C(c1ccccc1)(c1ccc(F)cc1)c1ccc(F)cc1` [1-[bis(4-fluorophenyl)phenylmethyl]-2-methyl-1H--imidazole], the EC50 was found to be 80 nM.

Another assay concerns estrogen synthesis. The assay can be described thus: Estrogen synthesis inhibition in rats (uterine weight and ovarian steroid concentrations). The conditions noted are these: 30 ppm in feed (approximately 3 mg/kg/day), ovaries. The class given is in vivo, female Wistar rats.
Method: Test compounds were administered for seven days either daily by gavage in corn oil or as a component of the diet. Control animals received either corn oil or diet without the test compound. Beginning on the fourth day of the test, all animals treated with the test compound and one half of the control animals were given a subcutaneous injection of 1.0 mg of testosterone propionate in corn oil. The remaining control animals received only an equivalent volume of corn oil.
After two hours, the animals were killed by decapitation. Uteri were isolated, trimmed of extraneous connective tissue, and weighed. […] In the control animals treated with testosterone propionate, estrogens produced by aromatization stimulated the uterus resulting in an increase in weight.
The ovarian steroids were extracted with 1.5 ml of 9:1 (v/v) toluene/ethanol to which had been added 25 to 100 mcg each of unlabelled estradiol, estriol, and estrone, and approximately 1000 dpm of [^14 C]-estradiol. The samples were vortexed, centrifuged at 500×g for 10 minutes, and the organic phase was transferred to a conical vial. Two additional extractions were performed on the residue in the same way. The pooled organic extracts were evaporated for subsequent thin-layer chromatography.
Ovarian proteins were precipitated by the addition of 5.0 ml of ethanol to the remaining aqueous phase. After an overnight incubation at 4° C., the samples were centrifuged at 1500×g for 10 minutes. The supernatant was discarded, and the pellet was dissolved in 0.3N potassium hydroxide.
The organic residue from each above extraction was redissolved in 9:1 (v/v) dichloromethane/methanol. The solution of each sample was applied to separate silica gel thin layer chromatography plates which contained a fluorescent indicator. The plates were developed in the first dimension with 160:38:1.5:0.5 (v/v/v/v) dichloromethane/ethyl acetate/methanol/acetic acid to within 3 cm of the top of the plate. After air-drying, the plate was developed in the second dimension with 180:19:1 (v/v/v) dichloromethane/methanol/ammonium hydroxide. The plate was air-dried and viewed under 254 nm UV light.
The visible spots were marked and the plates were sprayed with primulin (0.001% in 4:1 v/v acetone/water) according to the method of Wright, J. Chromatography, 59, 220 (1971) which allowed for the identification of additional steroids under 365 nm UV light. The spots were scraped from the plate using a glass wool plugged Pasteur pipet attached to a vacuum line. The steroids were eluted directly into scintillation vials by the addition of 0.2 ml of dichloromethane followed by two washes each of 2.0 ml of methanol. The organic solvent was evaporated and 10.0 ml of scintillation fluid (Beckman Ready Solv-NA) was added to the vials. Samples were analyzed by liquid scintillation spectrometry. Corrections were made based on the recoveries of the [^14 C]-steroid. Steroid concentrations are expressed as femtomoles per milligram protein.
For the compound `Clc1ccc(C(c2ccc(Cl)cc2)n2cnnc2)cc1` [4-[bis(4-chlorophenyl)methyl]-4H--1,2,4-triazole], the “Mean Steroid Concentration, estradiol” value is on record as 0.46 femtomoles per milligram of protein and the “Mean Steroid Concentration, estriol” value is 0.60 femtomoles per milligram of protein.

The same assay, now with this note: 30 ppm in feed (approximately 3 mg/kg/day), testosterone propionate-treated rats.
Take `Clc1ccc(C(c2ccc(Cl)cc2)(c2cncnc2)n2ccnc2)cc1` [5-[bis(4-chlorophenyl)-1H--imidazol-1-ylmethyl]pyrimidine]: the “Mean Uterine Weight” value stood at 107.5 mg. The same measure, in the same setting: the value for `COc1ccccc1C(c1ccccc1)n1ccnc1` (stereo not drawn) [1-[(2-methoxyphenyl)phenylmethyl]-1H--imidazole nitrate] was 176.0 mg; that for `Clc1ccc(C(c2ccc(Cl)cc2)n2cnnc2)cc1` [4-[bis(4-chlorophenyl)methyl]-4H--1,2,4-triazole] was 113.3 mg.

Still in this assay, the particulars now being: 300 ppm in feed (approximately 30 mg/kg/day), ovaries.
Consider `Clc1ccc(C(c2ccc(Cl)cc2)n2cnnc2)cc1` [4-[bis(4-chlorophenyl)methyl]-4H--1,2,4-triazole], for which the “Mean Steroid Concentration, estradiol” value is recorded as 0.48 femtomoles per milligram of protein; the “Mean Steroid Concentration, estriol” value is given as 0.64 femtomoles per milligram of protein; the “Mean Steroid Concentration, estrone” value is 0.10 femtomoles per milligram of protein.

The same assay, now with this note: 300 ppm in feed (approximately 30 mg/kg/day), testosterone propionate-treated rats.
Consider `Clc1ccc(C(c2ccc(Cl)cc2)(c2cncnc2)n2ccnc2)cc1` [5-[bis(4-chlorophenyl)-1H--imidazol-1-ylmethyl]pyrimidine], for which the “Mean Uterine Weight” value is on record as 87.6 mg. The same measure, in the same setting: to `COc1ccccc1C(c1ccccc1)n1ccnc1` (stereo not drawn) [1-[(2-methoxyphenyl)phenylmethyl]-1H--imidazole nitrate] belongs 212.6 mg. The same measure, in the same setting: the value for `Clc1ccc(C(c2ccc(Cl)cc2)n2cnnc2)cc1` [4-[bis(4-chlorophenyl)methyl]-4H--1,2,4-triazole] was 97.3 mg.

(Values after US4755526A, “Method of inhibiting aromatase” (Eli Lilly and Company, priority 1984, dated 1988).)
